The numbers were not newly measured in patent publication US20110152177A1, “Functional Feed Composition” (priority 2008, published 2011), which cites them from elsewhere.

For data set [1], the system named is Vibrio anguillarium. As to conditions: lower and higher doses reported to increase mortalities.
For data set [2], the system named is V. anguillarum. As to conditions: oral administration of PG at 0.2 and 2 mg/kg diet.

As to peptidoglycan, the “optimal dose of peptidoglycan in diet” value in data set [1] is listed as 4 g kg^−1 diet. Also, the “disease resistance” value in data set [2] was “enhances the disease resistance”.
